For 15 molecules, IC50 and inhibition results are on record in ChEMBL document CHEMBL2016507, “Prospective acetylcholinesterase inhibitory activity of indole and its analogs” (Bioorg Med Chem Lett, 2012).

Assay [1] concerns the target Acetylcholinesterase (Electrophorus electricus, UniProt O42275). Kind of assay: Inhibition of electric eel AChE using acetylcholine iodide as substrate measured every 5 sec for 2 mins by Ellman's method.
The target in assay [2] is T1, Acetylcholinesterase (Homo sapiens, UniProt P22303). Nature of the assay: Inhibition of human AChE by Ellman's method.
T1 sequence (P22303 whole entry): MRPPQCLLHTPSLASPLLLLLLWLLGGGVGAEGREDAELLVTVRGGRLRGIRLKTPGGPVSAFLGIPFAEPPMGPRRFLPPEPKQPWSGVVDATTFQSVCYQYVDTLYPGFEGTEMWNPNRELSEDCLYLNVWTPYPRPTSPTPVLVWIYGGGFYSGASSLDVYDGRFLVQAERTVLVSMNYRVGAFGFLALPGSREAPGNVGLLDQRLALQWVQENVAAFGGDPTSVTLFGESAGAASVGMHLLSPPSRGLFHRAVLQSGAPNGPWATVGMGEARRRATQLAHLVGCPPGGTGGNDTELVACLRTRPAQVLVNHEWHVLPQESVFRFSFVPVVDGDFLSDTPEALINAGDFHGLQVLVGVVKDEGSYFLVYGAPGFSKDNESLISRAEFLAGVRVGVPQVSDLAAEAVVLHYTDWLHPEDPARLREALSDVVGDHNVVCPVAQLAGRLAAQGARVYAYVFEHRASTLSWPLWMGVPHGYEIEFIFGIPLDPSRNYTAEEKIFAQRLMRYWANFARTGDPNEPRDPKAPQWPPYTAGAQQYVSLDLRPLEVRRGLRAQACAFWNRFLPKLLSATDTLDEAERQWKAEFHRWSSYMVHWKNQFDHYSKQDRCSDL
For assay [3], the target named is T1, Acetylcholinesterase. Nature of the assay: Inhibition of AChE by Ellman's method. For orientation: In Ellman's method for cholinesterases, released thiocholine reacts with DTNB.
The target in assay [4] is Acetylcholinesterase (Electrophorus electricus) (UniProt O42275). Kind of assay: Inhibition of electric eel AChE using acetylcholine iodide as substrate at 6.2 X 10^-4 M measured every 5 sec for 2 mins by Ellman's method.
Acetylcholinesterase (Electrophorus electricus), sequence (O42275 24-633 limits assumed): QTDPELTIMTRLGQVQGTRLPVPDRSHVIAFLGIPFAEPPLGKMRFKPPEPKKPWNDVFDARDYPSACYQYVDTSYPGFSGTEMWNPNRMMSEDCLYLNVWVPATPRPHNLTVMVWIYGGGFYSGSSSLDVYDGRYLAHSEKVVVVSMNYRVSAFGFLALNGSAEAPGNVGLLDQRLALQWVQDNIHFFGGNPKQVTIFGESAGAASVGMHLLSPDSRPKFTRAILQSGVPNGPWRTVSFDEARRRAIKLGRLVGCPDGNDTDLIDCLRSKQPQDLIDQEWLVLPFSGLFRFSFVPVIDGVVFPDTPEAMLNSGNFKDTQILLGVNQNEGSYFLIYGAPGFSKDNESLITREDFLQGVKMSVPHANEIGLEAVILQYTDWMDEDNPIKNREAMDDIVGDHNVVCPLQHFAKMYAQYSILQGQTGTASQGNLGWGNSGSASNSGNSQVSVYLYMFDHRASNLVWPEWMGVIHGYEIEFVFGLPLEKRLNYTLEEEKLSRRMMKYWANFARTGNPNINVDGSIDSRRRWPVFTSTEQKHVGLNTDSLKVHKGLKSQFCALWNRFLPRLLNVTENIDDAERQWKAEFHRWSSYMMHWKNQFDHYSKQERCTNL

Acetylcholinesterase (Electrophorus electricus, UniProt O42275), sequence (O42275 whole entry): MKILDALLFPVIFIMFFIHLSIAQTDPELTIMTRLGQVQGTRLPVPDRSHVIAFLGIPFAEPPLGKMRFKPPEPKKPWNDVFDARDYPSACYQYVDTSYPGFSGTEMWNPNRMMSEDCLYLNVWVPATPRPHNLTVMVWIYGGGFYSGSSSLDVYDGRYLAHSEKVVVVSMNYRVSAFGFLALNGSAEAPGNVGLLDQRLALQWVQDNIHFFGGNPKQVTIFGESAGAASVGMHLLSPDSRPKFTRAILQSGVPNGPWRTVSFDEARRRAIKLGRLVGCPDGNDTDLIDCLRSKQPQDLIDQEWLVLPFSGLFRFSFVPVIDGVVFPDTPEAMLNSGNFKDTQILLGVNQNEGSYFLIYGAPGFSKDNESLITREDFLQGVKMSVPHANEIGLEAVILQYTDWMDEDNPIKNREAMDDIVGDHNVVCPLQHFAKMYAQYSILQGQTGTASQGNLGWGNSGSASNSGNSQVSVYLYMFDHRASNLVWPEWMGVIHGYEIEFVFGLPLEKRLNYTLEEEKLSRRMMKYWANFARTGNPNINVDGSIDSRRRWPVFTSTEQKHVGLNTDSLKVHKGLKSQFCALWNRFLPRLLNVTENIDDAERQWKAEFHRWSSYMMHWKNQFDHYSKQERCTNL

For orientation: IC50 means the concentration at which inhibition is half-maximal. Regarding `Cc1nccc2c1[nH]c1cc(O)ccc12`, half-maximal inhibition against Acetylcholinesterase [1] (IC50) required 8.02 µM. Regarding `COc1ccc2c3c([nH]c2c1)C(C)=NCC3` [HARMALINE], the IC50 against Acetylcholinesterase [1] stood at 4.9 µM; on Acetylcholinesterase [2], 23.7 µM. As for `CC[C@H]1C[C@@H]2CN3CCc4c([nH]c5cc([C@H]6C[C@H]7C(C(=O)OC)[C@H](Cc8c6[nH]c6ccccc86)N(C)C[C@H]7CC)ccc45)[C@](C(=O)OC)(C2)[C@H]13` (stereo partly drawn), on Acetylcholinesterase [3], the midpoint of inhibition, the IC50, lay at 0.071 µM. `Cc1nccc2c1[nH]c1ccccc12` [HARMAN] yielded an IC50 against Acetylcholinesterase [1] of 20.9 µM. One may read the inhibition as the change of the read-out against control, counted positive when it falls. Read a low inhibition as a weak effect. `O=C(O)c1cccc2[nH]ccc12` displayed an inhibition in assay [4] of 36.8%. Molecule `O=C(O)c1cccc2cc[nH]c12` showed an inhibition in assay [4] of 23.4%. On the same count and under the same terms, the value for `O=C(O)c1ccc2[nH]ccc2c1` was 29.1%.

For `CC1=NCCc2c1[nH]c1cc(O)ccc21` [HARMALOL], on Acetylcholinesterase [1], inhibition was half-maximal at 11.3 µM (IC50). Turning to `CC[C@H]1C[C@@H]2C[C@H]3c4[nH]c5cc([C@@H]6C[C@H]7C(C(=O)OC)[C@@H](Cc8c6[nH]c6ccccc86)N(C)C[C@H]7CC)ccc5c4CCN(C2)[C@@H]13` (stereo partly drawn), half-maximal inhibition at Acetylcholinesterase [3] (IC50) required 0.227 µM. The molecule `O=C(O)c1ccc2cc[nH]c2c1` had an inhibition in assay [4] of 28.5%.

Turning to `COc1ccc2c(ccc[n+]2C)c1`, the half-inhibitory concentration (IC50) against Acetylcholinesterase [1] came out at 7.67 µM; against Acetylcholinesterase [2] it was 49.7 µM. On to `COc1ccc2c(c1)[nH]c1c(C)nccc12` [HARMINE], for which 22.9 µM corresponded to half-maximal inhibition on Acetylcholinesterase [1] (IC50). On the same count and under the same terms, the value for `c1ccc2c3c([nH]c2c1)CNCC3` [TRYPTOLINE] was 97.1 µM. With `COc1ccc2c(ccc[n+]2Cc2ccccc2)c1`, the IC50 came out at 2.46 µM at Acetylcholinesterase [1] and 5.29 µM at Acetylcholinesterase [2].

The molecule `COc1ccc2[nH]c3c(c2c1)CCNC3` returned an IC50 at Acetylcholinesterase [1] of 227 µM.
